Tests used:
[1] = target: T1, MtmC (Streptomyces argillaceus, UniProt Q194Q4); assay: crystal structure, […] Å; format: binding; details: binary complex; central-domain site; crystals pH 5.5
T1 sequence (Q194Q4 1-420): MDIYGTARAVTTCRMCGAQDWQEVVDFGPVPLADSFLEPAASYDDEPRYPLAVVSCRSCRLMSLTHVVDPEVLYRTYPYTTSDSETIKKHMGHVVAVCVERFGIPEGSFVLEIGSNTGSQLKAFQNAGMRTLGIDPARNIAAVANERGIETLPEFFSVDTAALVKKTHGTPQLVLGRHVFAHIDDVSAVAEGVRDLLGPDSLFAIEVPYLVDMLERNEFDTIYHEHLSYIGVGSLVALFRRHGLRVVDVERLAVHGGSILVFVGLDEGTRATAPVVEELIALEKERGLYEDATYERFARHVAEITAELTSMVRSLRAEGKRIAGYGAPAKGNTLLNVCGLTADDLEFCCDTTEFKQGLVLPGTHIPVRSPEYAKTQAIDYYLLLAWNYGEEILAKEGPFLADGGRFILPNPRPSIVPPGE

[2] = target: T1, MtmC; assay: crystal structure, […] Å; format: binding; details: binary complex; C-terminal domain site; crystals pH 5.5

## C[S+](CC[C@H](N)C(=O)O)C[C@H]1O[C@@H](n2cnc3c(N)ncnc32)[C@H](O)[C@@H]1O (some centres unmarked) [SAM]
[1]
  crystal structure, 2.2 Å: 4RVD (complex with SAM)

## Cc1cn([C@H]2C[C@H](O)[C@@H](COP(=O)(O)OP(=O)(O)O)O2)c(=O)[nH]c1=O [TDP]
[2]
  crystal structure, 2.7 Å: 4RVF (complex with TDP)

Source: publication PMC4406830 (Biochemistry, 2015)
